Assays:
[1] = test system: SK-MEL-2; experiment: Growth inhibition of human SK-MEL-2 cells after 48 hrs by sulforhodamine B assay; assay type: functional; details: SK-MEL-2, 48 h
[2] = test system: SK-MEL-28; experiment: Growth inhibition of human SK-MEL-28 cells after 48 hrs by sulforhodamine B assay; assay type: functional; details: SK-MEL-28, 48 h
[3] = Growth inhibition of human HCC2998 cells after 48 hrs by sulforhodamine B assay; assay type: functional; details: HCC 2998, 48 h
[4] = test system: NCI-H522; experiment: Growth inhibition of human NCI-H522 cells after 48 hrs by sulforhodamine B assay; assay type: functional; details: NCI-H522, 48 h
[5] = test system: MDA-MB-435; experiment: Growth inhibition of human MDA-MB-435 cells after 48 hrs by sulforhodamine B assay; assay type: functional; details: MDA-MB-435, 48 h
[6] = Growth inhibition of human OVCAR3 cells after 48 hrs by sulforhodamine B assay; assay type: functional; details: OVCAR-3, 48 h
[7] = test system: Rattus norvegicus; experiment: Hepatotoxicity in rat assessed as SGOT level at 0.12 mg/kg, po after 12 days (reference value: 140.23 +/- 1.39 U/mL); assay type: toxicity, organism-based; set-up: dose 0.12 mg/kg, route oral; details: in vivo, 288 h
[8] = Growth inhibition of human RXF393 cells after 48 hrs by sulforhodamine B assay; assay type: functional; details: RXF 393, 48 h
[9] = test system: 786-0; experiment: Growth inhibition of human 786-0 cells after 48 hrs by sulforhodamine B assay; assay type: functional; details: 786-0, 48 h
[10] = test system: SW-620; experiment: Growth inhibition of human SW620 cells after 48 hrs by sulforhodamine B assay; assay type: functional; details: SW-620, 48 h
[11] = Growth inhibition of human HCT15 cells after 48 hrs by sulforhodamine B assay; assay type: functional; details: HCT-15, 48 h
[12] = Growth inhibition of human OVCAR5 cells after 48 hrs by sulforhodamine B assay; assay type: functional; details: OVCAR-5, 48 h
[13] = Growth inhibition of human UO31 cells after 48 hrs by sulforhodamine B assay; assay type: functional; details: UO-31, 48 h
[14] = Growth inhibition of human UACC62 cells after 48 hrs by sulforhodamine B assay; assay type: functional; details: UACC-62, 48 h
[15] = test system: U-251; experiment: Growth inhibition of human U251 cells after 48 hrs by sulforhodamine B assay; assay type: functional; details: U-251, 48 h
[16] = Growth inhibition of human OVCAR8 cells after 48 hrs by sulforhodamine B assay; assay type: functional; details: OVCAR-8, 48 h
[17] = test system: SK-OV-3; experiment: Growth inhibition of human SKOV3 cells after 48 hrs by sulforhodamine B assay; assay type: functional; details: SK-OV-3, 48 h
[18] = test system: ACHN; experiment: Growth inhibition of human ACHN cells after 48 hrs by sulforhodamine B assay; assay type: functional
[19] = Growth inhibition of human NCI-ADR-RES cells after 48 hrs by sulforhodamine B assay; assay type: functional
[20] = test system: SR; experiment: Growth inhibition of human SR cells after 48 hrs by sulforhodamine B assay; assay type: functional
[21] = test system: MDA-MB-468; experiment: Growth inhibition of human MDA-MB-468 cells after 48 hrs by sulforhodamine B assay; assay type: functional; details: MDA-MB-468, 48 h
[22] = read-out: LC50 (the source's name)
[23] = read-out: pLC50 (the source's name) (converted)

Nc1nc(-c2ccccc2Cl)cc(-c2ccc(Cl)cc2Cl)n1
GI50 ([1]; read-out: GI50): 6.1 µM
CC50 [1, 22]: > 100 µM
TGI ([1]; read-out: TGI): 44.7 µM
GI50 ([1]; read-out: pGI50 (converted)): 6.17 µM
CC50 [1, 23]: > 100 µM
TGI ([1]; read-out: pTGI (converted)): 44.7 µM
GI50 ([2]; read-out: GI50): 20.9 µM
CC50 [2, 22]: > 100 µM
TGI ([2]; read-out: TGI): > 100 µM
GI50 ([2]; read-out: pGI50 (converted)): 20.9 µM
CC50 [2, 23]: > 100 µM
TGI ([2]; read-out: pTGI): > 100 µM
GI50 ([3]; read-out: GI50): 7.19 µM
CC50 [3, 22]: > 100 µM
TGI ([3]; read-out: TGI): 44 µM
GI50 ([3]; read-out: pGI50 (converted)): 7.24 µM
CC50 [3, 23]: > 100 µM
TGI ([3]; read-out: pTGI): 43.7 µM
GI50 ([4]; read-out: GI50): 3.27 µM
CC50 [4, 22]: > 100 µM
TGI ([4]; read-out: TGI): 23.3 µM
GI50 ([4]; read-out: pGI50 (converted)): 3.31 µM
CC50 [4, 23]: > 100 µM
TGI ([4]; read-out: pTGI (converted)): 23.4 µM
GI50 ([5]; read-out: GI50): 1.97 µM
CC50 [5, 22]: > 100 µM
TGI ([5]; read-out: TGI): 4.93 µM
GI50 ([5]; read-out: pGI50 (converted)): 1.95 µM
CC50 [5, 23]: > 100 µM
TGI ([5]; read-out: pTGI (converted)): 4.9 µM
GI50 ([6]; read-out: GI50): 4.05 µM
CC50 [6, 22]: > 100 µM
TGI ([6]; read-out: TGI): 20.7 µM
GI50 ([6]; read-out: pGI50 (converted)): 4.07 µM
CC50 [6, 23]: > 100 µM
TGI ([6]; read-out: pTGI (converted)): 20.9 µM
Activity [7]: 133.47 U/ml
GI50 ([8]; read-out: GI50): 2.67 µM
CC50 [8, 22]: > 100 µM
TGI ([8]; read-out: TGI): 10.7 µM
GI50 ([8]; read-out: pGI50 (converted)): 2.69 µM
CC50 [8, 23]: > 100 µM
TGI ([8]; read-out: pTGI (converted)): 10.7 µM
GI50 ([9]; read-out: GI50): 20.2 µM
CC50 [9, 22]: > 100 µM
TGI ([9]; read-out: TGI): > 100 µM
GI50 ([9]; read-out: pGI50 (converted)): 20.4 µM
CC50 [9, 23]: > 100 µM
TGI ([9]; read-out: pTGI): > 100 µM
GI50 ([10]; read-out: GI50): 3.41 µM
CC50 [10, 22]: > 100 µM
TGI ([10]; read-out: TGI): > 100 µM
GI50 ([10]; read-out: pGI50 (converted)): 3.39 µM
CC50 [10, 23]: > 100 µM
TGI ([10]; read-out: pTGI): > 100 µM
GI50 ([11]; read-out: GI50): 5.09 µM
CC50 [11, 22]: > 100 µM
TGI ([11]; read-out: TGI): > 100 µM
GI50 ([11]; read-out: pGI50 (converted)): 5.13 µM
CC50 [11, 23]: > 100 µM
TGI ([11]; read-out: pTGI): > 100 µM
GI50 ([12]; read-out: GI50): 8.09 µM
CC50 [12, 22]: > 100 µM
TGI ([12]; read-out: TGI): > 100 µM
GI50 ([12]; read-out: pGI50 (converted)): 8.13 µM
CC50 [12, 23]: > 100 µM
TGI ([12]; read-out: pTGI): > 100 µM
GI50 ([13]; read-out: GI50): 13.5 µM
CC50 [13, 22]: > 100 µM
TGI ([13]; read-out: TGI): > 100 µM
GI50 ([13]; read-out: pGI50 (converted)): 13.5 µM
CC50 [13, 23]: > 100 µM
TGI ([13]; read-out: pTGI): > 100 µM
GI50 ([14]; read-out: GI50): 5.93 µM
CC50 [14, 22]: > 100 µM
TGI ([14]; read-out: TGI): 44.2 µM
GI50 ([14]; read-out: pGI50 (converted)): 5.89 µM
CC50 [14, 23]: > 100 µM
TGI ([14]; read-out: pTGI (converted)): 44.7 µM
GI50 ([15]; read-out: GI50): 11.1 µM
CC50 [15, 22]: > 100 µM
TGI ([15]; read-out: TGI): > 100 µM
GI50 ([15]; read-out: pGI50 (converted)): 11.2 µM
CC50 [15, 23]: > 100 µM
TGI ([15]; read-out: pTGI): > 100 µM
GI50 ([16]; read-out: GI50): 6.87 µM
CC50 [16, 22]: > 100 µM
TGI ([16]; read-out: TGI): > 100 µM
GI50 ([16]; read-out: pGI50 (converted)): 6.92 µM
CC50 [16, 23]: > 100 µM
TGI ([16]; read-out: pTGI): > 100 µM
GI50 ([17]; read-out: GI50): 10.1 µM
CC50 [17, 22]: > 100 µM
TGI ([17]; read-out: TGI): 62.3 µM
GI50 ([17]; read-out: pGI50 (converted)): 10 µM
CC50 [17, 23]: > 100 µM
TGI ([17]; read-out: pTGI (converted)): 61.7 µM
GI50 ([18]; read-out: GI50): 10.4 µM
CC50 [18, 22]: > 100 µM
TGI ([18]; read-out: TGI): > 100 µM
GI50 ([18]; read-out: pGI50 (converted)): 10.5 µM
CC50 [18, 23]: > 100 µM
TGI ([18]; read-out: pTGI): > 100 µM
GI50 ([19]; read-out: GI50): 14.8 µM
CC50 [19, 22]: > 100 µM
TGI ([19]; read-out: TGI): > 100 µM
GI50 ([19]; read-out: pGI50 (converted)): 14.8 µM
CC50 [19, 23]: > 100 µM
TGI ([19]; read-out: pTGI): > 100 µM
GI50 ([20]; read-out: GI50): 4.1 µM
CC50 [20, 22]: > 100 µM
TGI ([20]; read-out: TGI): > 100 µM
GI50 ([20]; read-out: pGI50 (converted)): 4.07 µM
CC50 [20, 23]: > 100 µM
TGI ([20]; read-out: pTGI): > 100 µM
GI50 ([21]; read-out: GI50): 2.18 µM
CC50 [21, 22]: > 100 µM
TGI ([21]; read-out: TGI): 8.66 µM
GI50 ([21]; read-out: pGI50 (converted)): 2.19 µM
CC50 [21, 23]: > 100 µM
TGI ([21]; read-out: pTGI (converted)): 8.71 µM
